{
  "source": "ChEMBL document CHEMBL1201862",
  "about": "“PubChem BioAssay data set” (2004)",
  "assay_in_all_cases": "NCI anticancer screen, dose series, 48 h",
  "key": {"HCC 2998": {"system": "HCC 2998"}, "OVCAR-8": {"system": "OVCAR-8"}, "786-0": {"system": "786-0"}, "EKVX": {"system": "EKVX"}, "COLO 205": {"system": "COLO 205"}, "A498": {"system": "A498"}, "TK-10": {"system": "TK-10"}, "CCRF-CEM": {"system": "CCRF-CEM"}, "OVCAR-3": {"system": "OVCAR-3"}, "A549": {"system": "A549"}, "SF-295": {"system": "SF-295"}, "HL-60": {"system": "HL-60"}, "SNB-19": {"system": "SNB-19"}, "HCT-15": {"system": "HCT-15"}, "MDA-MB-435": {"system": "MDA-MB-435"}, "SNB-75": {"system": "SNB-75"}, "SK-MEL-28": {"system": "SK-MEL-28"}, "MCF7": {"system": "MCF7"}, "BT-549": {"system": "BT-549"}, "NCI-H460": {"system": "NCI-H460"}},
  "note": "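Five concentrations, 48 hours, 96-well plates. At the GI50, growth is halved.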 Calls of active or inactive are those of the source. Cut-off read from the data, not from the text of the source: active = GI50 up to about 1.1 µM and inactive = higher.",
  "data": [
    {"smiles": "CC1OC(Oc2c(-c3cc(O)c(O)c(O)c3)oc3cc(O)cc(O)c3c2=O)C(O)C(O)C1O", "note": "(centres undefined)", "values": [
      {"measurement": "GI50", "setting": "HCC 2998", "result": "> 100 µM (inactive)"},
      {"measurement": "GI50", "setting": "OVCAR-8", "result": "> 100 µM (inactive)"},
      {"measurement": "GI50", "setting": "786-0", "result": "> 100 µM (inactive)"},
      {"measurement": "GI50", "setting": "EKVX", "result": "> 100 µM (inactive)"},
      {"measurement": "GI50", "setting": "COLO 205", "result": "> 100 µM (inactive)"},
      {"measurement": "GI50", "setting": "A498", "result": "> 100 µM (inactive)"},
      {"measurement": "GI50", "setting": "TK-10", "result": "> 100 µM (inactive)"},
      {"measurement": "GI50", "setting": "CCRF-CEM", "result": "> 10 µM (inactive)"},
      {"measurement": "GI50", "setting": "OVCAR-3", "result": "> 100 µM (inactive)"},
      {"measurement": "GI50", "setting": "A549", "result": "> 100 µM (inactive)"},
      {"measurement": "GI50", "setting": "SF-295", "result": "> 100 µM (inactive)"},
      {"measurement": "GI50", "setting": "HL-60", "result": "56.6 µM (inactive)"},
      {"measurement": "GI50", "setting": "SNB-19", "result": "> 100 µM (inactive)"},
      {"measurement": "GI50", "setting": "HCT-15", "result": "> 100", "unit": "µM"},
      {"measurement": "GI50", "setting": "MDA-MB-435", "result": "57.4 µM (inactive)"},
      {"measurement": "GI50", "setting": "SNB-75", "result": "> 100 µM (inactive)"},
      {"measurement": "GI50", "setting": "SK-MEL-28", "result": "> 100 µM (inactive)"},
      {"measurement": "GI50", "setting": "MCF7", "result": "> 100 µM (inactive)"},
      {"measurement": "GI50", "setting": "BT-549", "result": "> 100 µM (inactive)"}
    ]},
    {"smiles": "CCOC(=O)c1nc2ccc(C(F)(F)F)cc2nc1Oc1ccc(F)cc1", "values": [
      {"measurement": "GI50", "setting": "HCC 2998", "result": "> 100 µM (inactive)"},
      {"measurement": "GI50", "setting": "OVCAR-8", "result": "> 100 µM (inactive)"},
      {"measurement": "GI50", "setting": "786-0", "result": "> 100 µM (inactive)"},
      {"measurement": "GI50", "setting": "EKVX", "result": "> 100 µM (inactive)"},
      {"measurement": "GI50", "setting": "COLO 205", "result": "> 100 µM (inactive)"},
      {"measurement": "GI50", "setting": "A498", "result": "> 100 µM (inactive)"},
      {"measurement": "GI50", "setting": "TK-10", "result": "> 100 µM (inactive)"},
      {"measurement": "GI50", "setting": "NCI-H460", "result": "> 100 µM (inactive)"},
      {"measurement": "GI50", "setting": "CCRF-CEM", "result": "> 100 µM (inactive)"},
      {"measurement": "GI50", "setting": "SF-295", "result": "> 100 µM (inactive)"},
      {"measurement": "GI50", "setting": "HL-60", "result": "> 100 µM (inactive)"},
      {"measurement": "GI50", "setting": "SNB-19", "result": "> 100 µM (inactive)"},
      {"measurement": "GI50", "setting": "HCT-15", "result": "> 100", "unit": "µM"},
      {"measurement": "GI50", "setting": "MDA-MB-435", "result": "> 100 µM (inactive)"},
      {"measurement": "GI50", "setting": "SNB-75", "result": "> 100 µM (inactive)"},
      {"measurement": "GI50", "setting": "SK-MEL-28", "result": "> 100 µM (inactive)"},
      {"measurement": "GI50", "setting": "MCF7", "result": "> 100 µM (inactive)"},
      {"measurement": "GI50", "setting": "BT-549", "result": "> 100 µM (inactive)"}
    ]},
    {"smiles": "C=CC[C@H]1O[Si](C(C)(C)C)(C(C)(C)C)[C@H](C)[C@H]1C", "values": [
      {"measurement": "GI50", "setting": "HCC 2998", "result": "> 100 µM (inactive)"},
      {"measurement": "GI50", "setting": "OVCAR-8", "result": "> 100 µM (inactive)"},
      {"measurement": "GI50", "setting": "786-0", "result": "> 100 µM (inactive)"},
      {"measurement": "GI50", "setting": "EKVX", "result": "> 100 µM (inactive)"},
      {"measurement": "GI50", "setting": "COLO 205", "result": "> 100 µM (inactive)"},
      {"measurement": "GI50", "setting": "A498", "result": "> 100 µM (inactive)"},
      {"measurement": "GI50", "setting": "TK-10", "result": "> 100 µM (inactive)"},
      {"measurement": "GI50", "setting": "CCRF-CEM", "result": "> 100 µM (inactive)"},
      {"measurement": "GI50", "setting": "OVCAR-3", "result": "> 100 µM (inactive)"},
      {"measurement": "GI50", "setting": "A549", "result": "> 100 µM (inactive)"},
      {"measurement": "GI50", "setting": "SF-295", "result": "> 100 µM (inactive)"},
      {"measurement": "GI50", "setting": "HL-60", "result": "> 100 µM (inactive)"},
      {"measurement": "GI50", "setting": "SNB-19", "result": "13.6 µM (inactive)"},
      {"measurement": "GI50", "setting": "HCT-15", "result": "> 100", "unit": "µM"},
      {"measurement": "GI50", "setting": "MDA-MB-435", "result": "> 100 µM (inactive)"},
      {"measurement": "GI50", "setting": "SNB-75", "result": "> 100 µM (inactive)"},
      {"measurement": "GI50", "setting": "SK-MEL-28", "result": "> 100 µM (inactive)"},
      {"measurement": "GI50", "setting": "MCF7", "result": "> 100 µM (inactive)"},
      {"measurement": "GI50", "setting": "BT-549", "result": "> 100 µM (inactive)"}
    ]},
    {"smiles": "CC[C@@H](C)[C@H]([C@H](CC(=O)N1CCC[C@@H]1[C@@H](OC)[C@H](C)C(=O)N[C@H](Cc1ccccc1)c1nccs1)OC)N(C)C(=O)[C@H](NC(=O)[C@@H](C(C)C)N(C)C)C(C)C", "values": [
      {"measurement": "GI50", "setting": "HCC 2998", "result": "0.00029 µM (active)"},
      {"measurement": "GI50", "setting": "OVCAR-8", "result": "0.000286 µM (active)"},
      {"measurement": "GI50", "setting": "786-0", "result": "0.000184 µM (active)"},
      {"measurement": "GI50", "setting": "EKVX", "result": "0.000277 µM (active)"},
      {"measurement": "GI50", "setting": "COLO 205", "result": "7.13e-05 µM (active)"},
      {"measurement": "GI50", "setting": "A498", "result": "0.000228 µM (active)"},
      {"measurement": "GI50", "setting": "TK-10", "result": "0.00181 µM (active)"},
      {"measurement": "GI50", "setting": "NCI-H460", "result": "5.9e-05 µM (active)"},
      {"measurement": "GI50", "setting": "OVCAR-3", "result": "3.11e-05 µM (active)"},
      {"measurement": "GI50", "setting": "A549", "result": "0.000121 µM (active)"},
      {"measurement": "GI50", "setting": "SF-295", "result": "0.000146 µM (active)"},
      {"measurement": "GI50", "setting": "HL-60", "result": "3.51e-05 µM (active)"},
      {"measurement": "GI50", "setting": "SNB-19", "result": "0.000267 µM (active)"},
      {"measurement": "GI50", "setting": "HCT-15", "result": 0.000366, "unit": "µM"},
      {"measurement": "GI50", "setting": "MDA-MB-435", "result": "< 0.01 µM (active)"},
      {"measurement": "GI50", "setting": "SNB-75", "result": "0.000161 µM (active)"},
      {"measurement": "GI50", "setting": "SK-MEL-28", "result": "0.00069 µM (active)"},
      {"measurement": "GI50", "setting": "MCF7", "result": "< 0.01 µM (active)"},
      {"measurement": "GI50", "setting": "BT-549", "result": "< 0.01 µM (active)"}
    ]},
    {"smiles": "OC/C=C/[C@H](OCc1ccccc1)[C@H](/C=C/CO)OCc1ccccc1", "values": [
      {"measurement": "GI50", "setting": "HCC 2998", "result": "50.2 µM (inactive)"},
      {"measurement": "GI50", "setting": "OVCAR-8", "result": "46.2 µM (inactive)"},
      {"measurement": "GI50", "setting": "786-0", "result": "44.9 µM (inactive)"},
      {"measurement": "GI50", "setting": "EKVX", "result": "47.6 µM (inactive)"},
      {"measurement": "GI50", "setting": "COLO 205", "result": "59.3 µM (inactive)"},
      {"measurement": "GI50", "setting": "A498", "result": "> 100 µM (inactive)"},
      {"measurement": "GI50", "setting": "TK-10", "result": "73.1 µM (inactive)"},
      {"measurement": "GI50", "setting": "NCI-H460", "result": "57.8 µM (inactive)"},
      {"measurement": "GI50", "setting": "CCRF-CEM", "result": "20.1 µM (inactive)"},
      {"measurement": "GI50", "setting": "OVCAR-3", "result": "39.7 µM (inactive)"},
      {"measurement": "GI50", "setting": "A549", "result": "30.3 µM (inactive)"},
      {"measurement": "GI50", "setting": "SF-295", "result": "32.5 µM (inactive)"},
      {"measurement": "GI50", "setting": "SNB-19", "result": "31.2 µM (inactive)"},
      {"measurement": "GI50", "setting": "HCT-15", "result": 34.8, "unit": "µM"},
      {"measurement": "GI50", "setting": "MDA-MB-435", "result": "40.1 µM (inactive)"},
      {"measurement": "GI50", "setting": "SNB-75", "result": "32.7 µM (inactive)"},
      {"measurement": "GI50", "setting": "SK-MEL-28", "result": "35.8 µM (inactive)"},
      {"measurement": "GI50", "setting": "MCF7", "result": "33.1 µM (inactive)"},
      {"measurement": "GI50", "setting": "BT-549", "result": "59.2 µM (inactive)"}
    ]}
  ]
}
